Laboratory results as given in patent US10822664B2, “Sequence-specific detection and phenotype determination” (priority 2015, dated 2020).

Tests used:
E. coli [1] = assay: Effect of murA PNA on growth (OD600) of E. coli; assay type: cell-based; details: murA PNA 4.5 μM in LB; OD600 over 8 hours; FIG. 1
Experimental: (§1) Isolates of E. coli and K. pneumoniae were grown overnight in LB at 37° C. and sub-cultured the next day at a 1:100 dilution into fresh LB and grown to an optical density at 600 nm (OD600) of 0.2. Inoculums of each strain of approximately 10^4 CFU of each species of bacteria were added to separate wells of a microplate each containing 50 μL of LB or LB with murA PNA at a final concentration of 4.5 μM. OD600 readings were measured over a period of 8 hours to assess growth of PNA-treated and PNA-untreated cells.

K. pneumoniae [2] = assay: Effect of murA PNA on growth (OD600) of K. pneumoniae; assay type: cell-based; details: murA PNA 4.5 μM in LB; OD600 over 8 hours; FIG. 2
Experimental: as §1

E. coli [3] = assay: Enterobacteriaceae luminescent-reporter NRTP assay with murA PNA, E. coli; assay type: cell-based; details: murA PNA 4.5 μM, 30° C. for 2 hours, FIG. 3
Experimental: (§2) Isolates of E. coli and K. pneumoniae were grown overnight in LB at 37° C. and sub-cultured the next day at a 1:100 dilution into fresh LB and grown to an OD600 of 0.2. Inoculums of each strain of approximately 10^4 CFU of each species of bacteria were added to separate wells of a microplate each containing 50 μL of LB or LB with murA PNA at a final concentration of 4.5 μM. All wells subsequently received 100 uL of an Enterobacteriaceae luminescent-reporter non-replicative transduction particle as described in PCT/US2014/026536, Example 1 and the samples were incubated at 30° C. for 2 hours. After the incubation period, the plates were assayed for luminescence using a Molecular Devices SpectraMax L microplate luminometer in which a solution of tridecanal was injected into each well as luminescence readings were taken.

K. pneumoniae [4] = assay: Enterobacteriaceae luminescent-reporter NRTP assay with murA PNA, K. pneumoniae; assay type: cell-based; details: murA PNA 4.5 μM, 30° C. for 2 hours, FIG. 3
Experimental: as §2

[5] = test system: E. coli 1289011, 1289012, 1289014, and 1289018; assay: AST meropenem/peptide-PNA disk diffusion testing; assay type: cell-based; details: for meropenem disk diffusion result: 10 μg meropenem disk, FIG. 4; for zone diameter compared to that of meropenem alone: 10 μg meropenem disk including peptide-PNA
Experimental: Disk diffusion testing is conducted following CLSI-M02 (12) and interpreted following M100-S22 (13). Briefly, for testing each bacterium for susceptibility to meropenem, a Mueller-Hinton agar (MHA) plates are inoculated using a sterile cotton swab dipped into a suspension of a culture of bacteria at a 0.5 McFarland standard such that the entire surface of the MHA is covered. A 10 μg meropenem disk is applied to the surface of the inoculated plate and the plate is incubated at 35° C. in ambient air for 16 to 18 hours. The strain of bacteria is determined to be susceptible to meropenem if the diameter of the zone of inhibition around the meropenem disk is ≥23 mm and resistant to meropenem if the zone diameter is ≤19 mm.
The second row of FIG. 4 depicts the typical meropenem disk diffusion results for the E. coli strains where 1289011, 1289012, and 1289014 are CRE and 1289018 is CSE.
To determine the specific mechanism linked to the meropenem-resistant phenotype, disk diffusion testing is conducted with 10 μg meropenem disks including blaKPC-3- and blaNDM-1-peptide-PNA. If the peptide-PNA inhibits the specific carbapenemase linked to the meropenem resistance in the E. coli strain, then the zone diameter observed will be […] when compared to the zone diameter of the strain when exposed to a disk containing only meropenem.

[6] = test system: E. coli 1289011, 1289012, 1289014, and 1289018; assay: Peptide-PNA cell-reporter AST assay (Enterobacteriaceae reporter); assay type: cell-based
Experimental: In this example, the AST technique described in Example 2 is extended to AST testing based on cell-reporter assays. An Enterobacteriaceae cell reporter as described in PCT/US2014/026536, Example 1 is employed and the assay is run as follows. Briefly, cultures of E. coli 1289011, 1289012, 1289014, and 1289018 are prepared and used to inoculate wells of a microwell plate containing 50 μL of LB with 50 μL of inoculum such that each well receives 10^4 CFU of each strain of bacteria. A set of wells contain no additional additives, another set of wells contain 5 μg/mL of meropenem, another set of wells contain 5 μg/mL of meropenem and blaKPC-3-peptide-PNA, another set of wells contain 5 μg/mL of meropenem and blaNDM-1-peptide-PNA, and another two set of wells contain only blaKPC-3 or blaNDM-1 peptide-PNA, respectively. All wells also receive 100 μL of the Enterobacteriaceae reporter. The samples are then incubated at 30° C. for 2 hours and then the samples are assayed for luminescence as described in Example 1.

[7] = test system: E. coli 1289018, 1289023, 1289027, and 1289011; assay: CRISPR/Cas9 cell-reporter AST assay; assay type: cell-based
Source text: Enterobacteriaceae cell reporters as described in PCT/US2014/026536, Example 1 are designed with reporter plasmids that also carry single-guide[14] CRISPR/Cas9 systems with CRISPR loci that carry sequences targeting blaNDM-1 and blaSHV-18 genes (Table 1, SEQ ID NOs 11 & 13) a carbapenem resistance and extended β-lactam resistance gene, respectively. The reporter plasmid pGWP10001 is modified to include the cas9 gene, tracrRNA under the control of the PL(tetO-1) promoter, and a CRISPR cloning site, and CRISPR loci are designed to target the blaNDM-1 (SEQ ID NO 4) and blaSHV-18 (SEQ ID NO 5) genes and each are cloned into pGWP10001/CRISPR/Cas9 vectors to generate reporter plasmids that simultaneously target the blaNDM-1 and blaSHV-18 genes.
The vectors are used to generate non-replicative transduction particles carrying each plasmid and these are employed in a reporter system for determining the mechanism responsible to β-lactam non-susceptibility. Briefly, cultures of E. coli 1289018 (blaNDM-1, blaSHV-18-negative), 1289023 (blaNDM-1-positive), 1289027 (blaSHV-positive), and 1289011 (blaVIM-positive) are prepared and used to inoculate wells of a microwell plate containing 50 μL of LB with 50 μL of inoculum such that each well receives 10^4 CFU of each strain of bacteria. To these wells 100 μL of the following is added: a set of wells contain 5 μg/mL of meropenem and blaNDM-1-targetting NRTP, another set of wells contain 5 μg/mL of meropenem and blaSHV-18-NRTP, another set of wells contain 5 μg/mL of ceftazidime and blaNDM-1-targetting NRTP, and another set of wells contain 5 μg/mL of ceftazidime and blaSHV-18-NRTP. The samples are then incubated at 30° C. for 2 hours and then the samples are assayed for luminescence as described in Example 1.

Enterococcus spp. = assay: VRE cell-reporter assay (Enterococcus reporter); assay type: cell-based, E. faecalis, E. faecium, E. casseliflavus; details: 5 μg/mL vancomycin, FIG. 7 column 2
Source text: In this example an Enterococcus cell reporter is employed in combination with vancomycin and antisense molecules targeting vanC-2 gene expression. The assay allows for the detection of VRE and discrimination from vancomycin-sensitive Enterococcus (VSE) and Enterococcus expressing the vanC-2 gene and not the vanA or vanB genes. The Enterococcus reporter is designed to cause Enterococcus spp. to produce a detectable signal. A Peptide-PNA is designed to target vanC-2 transcripts.
Briefly, cultures of VSE E. faecalis 1259012, vanA-positive VRE E. faecalis 1259016, VSE E. faecium 1269011, vanB-positive VRE E. faecium 1269014, and vanC-2-positive vancomycin non-susceptible E. casseliflavus 1279015 are prepared and used to inoculate wells of a microwell plate containing 50 μL of LB with 50 μL of inoculum such that each well receives 10^4 CFU of each strain of bacteria. A set of wells contains no additional additives, another set of wells contains 5 μg/mL of vancomycin, and another set of wells contains 5 μg/mL of vancomycin and vanC-2-peptide-PNA. All wells also receive 100 μL of the Enterococcus reporter. The samples are then incubated at 37° C. for 2 hours and then the samples are assayed for luminescence as described in Example 1.

[8] = E. coli 1289018, 5 μg/mL β-lactam, regardless of which NRTP, FIG. 6 row 1
[9] = E. coli 1289011, 5 μg/mL meropenem and peptide-PNA
[10] = E. coli 1289012, 5 μg/mL meropenem and peptide-PNA
[11] = E. coli 1289014, 5 μg/mL meropenem and peptide-PNA

Compound	inhibition in reporter assay [7, 8]	zone diameter compared to that of meropenem alone ([5]; E. coli 1289011)	zone diameter compared to that of meropenem alone ([5]; E. coli 1289012)	zone diameter compared to that of meropenem alone ([5]; E. coli 1289014)	reporter assay signal [6, 9]	reporter assay signal [6, 10]	reporter assay signal [6, 11]	further results
KFFKFFKFFK-eg-ccatttagtt (CCATTTAGTT; all peptide nucleic acid (PNA); further chemistry not fully specified) [murA PNA]								growth of E. coli (E. coli [1]): compromised; growth of K. pneumoniae (K. pneumoniae [2]): not compromised; luminescence signal produced by E. coli (E. coli [3]): compromised; luminescence signal produced by K. pneumoniae (K. pneumoniae [4]): does not inhibit signal production
C[C@@H](O)[C@H]1C(=O)N2C(C(=O)O)=C(S[C@@H]3CN[C@H](C(=O)N(C)C)C3)[C@H](C)[C@H]12 [meropenem, reference compound]	inhibited							meropenem disk diffusion result ([5]; E. coli 1289011): CRE; meropenem disk diffusion result ([5]; E. coli 1289012): CRE; meropenem disk diffusion result ([5]; E. coli 1289014): CRE; meropenem disk diffusion result ([5]; E. coli 1289018): CSE; reporter assay signal ([6]; 5 μg/mL meropenem, all E. coli strains except 1289018, FIG. 5 column 2): continue to give a positive signal; inhibition in reporter assay ([7]; E. coli 1289027 (blaSHV-positive), 5 μg/mL meropenem, FIG. 6 row 3): inhibited
blaNDM-1 peptide-PNA: PNA (SEQ ID NO 3) targeting the TIR of blaNDM-1, conjugated to the peptide KFFKFFKFFK (TCAAGTTTTCC; all peptide nucleic acid (PNA); further chemistry not fully specified)		not reduced	not reduced	reduced	continues to produce a positive signal	continues to produce a positive signal	no longer produces a positive signal	
blaKPC-3 peptide-PNA: PNA (SEQ ID NO 2) targeting the TIR of blaKPC-3, conjugated to the peptide KFFKFFKFFK (TCAACGATAT; all peptide nucleic acid (PNA); further chemistry not fully specified)		not reduced	reduced	not reduced	continues to produce a positive signal	no longer produces a positive signal	continues to produce a positive signal	
CC(C)(O/N=C(\C(=O)N[C@@H]1C(=O)N2C(C(=O)[O-])=C(C[n+]3ccccc3)CS[C@H]12)c1csc(N)n1)C(=O)O [ceftazidime]	inhibited							
CN[C@H](CC(C)C)C(=O)N[C@H]1C(=O)N[C@@H](CC(N)=O)C(=O)N[C@H]2C(=O)N[C@H]3C(=O)N[C@H](C(=O)N[C@H](C(=O)O)c4cc(O)cc(O)c4-c4cc3ccc4O)[C@H](O)c3ccc(c(Cl)c3)Oc3cc2cc(c3O[C@@H]2O[C@H](CO)[C@@H](O)[C@H](O)[C@H]2O[C@H]2C[C@](C)(N)[C@H](O)[C@H](C)O2)Oc2ccc(cc2Cl)[C@H]1O [vancomycin]								reporter assay signal (Enterococcus spp.; strains expressing a van gene): continue to give a positive signal; reporter assay signal (Enterococcus spp.; strains not carrying a van gene): do not
